PubChem BioAssay (NCI)
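96-well plates; 48 h exposure; 5 concentrations. Endpoints by linear interpolation between flanking doses. Not reached: highest tested concentration assigned. At the TGI there is no net growth.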

Tests used:
Experiment in all cases: NCI anticancer screen, dose series, 48 h
LOX IMVI melanoma = test system: LOX IMVI melanoma
RXF 393 renal = test system: RXF 393 renal
NCI-H226 lung = test system: NCI-H226 lung
NCI-H522 lung = test system: NCI-H522 lung
SNB-75 CNS = test system: SNB-75 CNS
SNB-19 CNS = test system: SNB-19 CNS
OVCAR-4 ovarian = test system: OVCAR-4 ovarian
LXFL 529 NSCLC = test system: LXFL 529 NSCLC
DMS 114 small cell lung = test system: DMS 114 small cell lung
M19-MEL melanoma = test system: M19-MEL melanoma
OVCAR-8 ovarian = test system: OVCAR-8 ovarian
SF-295 CNS = test system: SF-295 CNS
UO-31 renal = test system: UO-31 renal
COLO 205 colon = test system: COLO 205 colon
SN12C renal = test system: SN12C renal
HOP-62 NSCLC = test system: HOP-62 NSCLC
UACC-62 melanoma = test system: UACC-62 melanoma
TK-10 renal = test system: TK-10 renal
DMS 273 small cell lung = test system: DMS 273 small cell lung
HCC-2998 colon = test system: HCC-2998 colon
NCI-H23 lung = test system: NCI-H23 lung
HL-60(TB) leukemia = test system: HL-60(TB) leukemia
KM12 colon = test system: KM12 colon
K-562 leukemia = test system: K-562 leukemia
CCRF-CEM leukemia = test system: CCRF-CEM leukemia
SK-OV-3 ovarian = test system: SK-OV-3 ovarian
UACC-257 melanoma = test system: UACC-257 melanoma
CAKI-1 renal = test system: CAKI-1 renal
SK-MEL-28 melanoma = test system: SK-MEL-28 melanoma
A549 NSCLC = test system: A549 NSCLC
SW-620 colon = test system: SW-620 colon
RXF-631 renal = test system: RXF-631 renal
DLD-1 colon = test system: DLD-1 colon
KM20L2 colon = test system: KM20L2 colon
SK-MEL-5 melanoma = test system: SK-MEL-5 melanoma
XF 498 CNS = test system: XF 498 CNS
SNB-78 CNS = test system: SNB-78 CNS
HCT-15 colon = test system: HCT-15 colon
IGROV1 ovarian = test system: IGROV1 ovarian
OVCAR-5 ovarian = test system: OVCAR-5 ovarian
HT29 colon = test system: HT29 colon
EKVX NSCLC = test system: EKVX NSCLC
RPMI-8226 leukemia = test system: RPMI-8226 leukemia
ACHN renal = test system: ACHN renal
NCI-H460 lung = test system: NCI-H460 lung
SF-539 CNS = test system: SF-539 CNS
SK-MEL-2 melanoma = test system: SK-MEL-2 melanoma
M14 melanoma = test system: M14 melanoma
MALME-3M melanoma = test system: MALME-3M melanoma
HCT-116 colon = test system: HCT-116 colon
U251 CNS = test system: U251 CNS
SF-268 CNS = test system: SF-268 CNS
OVCAR-3 ovarian = test system: OVCAR-3 ovarian
786-0 renal = test system: 786-0 renal
HOP-92 NSCLC = test system: HOP-92 NSCLC
SR leukemia = test system: SR leukemia
MOLT-4 leukemia = test system: MOLT-4 leukemia
A498 renal = test system: A498 renal
HOP-18 NSCLC = test system: HOP-18 NSCLC

CC1CN(c2ccc(Cl)cc2)CC(C)(C)OC(=O)O1 (centres undefined)
TGI (LOX IMVI melanoma): > 100 µM
TGI (RXF 393 renal): > 100 µM
TGI (NCI-H226 lung): > 100 µM
TGI (NCI-H522 lung): > 100 µM
TGI (SNB-75 CNS): > 100 µM
TGI (SNB-19 CNS): > 100 µM
TGI (OVCAR-4 ovarian): > 100 µM
TGI (LXFL 529 NSCLC): > 100 µM
TGI (DMS 114 small cell lung): > 100 µM
TGI (M19-MEL melanoma): > 100 µM
TGI (OVCAR-8 ovarian): > 100 µM
TGI (SF-295 CNS): > 100 µM
TGI (UO-31 renal): > 100 µM
TGI (COLO 205 colon): > 100 µM
TGI (SN12C renal): > 100 µM
TGI (HOP-62 NSCLC): > 100 µM
TGI (UACC-62 melanoma): > 100 µM
TGI (TK-10 renal): > 100 µM
TGI (DMS 273 small cell lung): > 100 µM
TGI (HCC-2998 colon): > 100 µM
TGI (NCI-H23 lung): > 100 µM
TGI (HL-60(TB) leukemia): > 100 µM
TGI (KM12 colon): > 100 µM
TGI (K-562 leukemia): > 100 µM
TGI (CCRF-CEM leukemia): > 100 µM
TGI (SK-OV-3 ovarian): > 100 µM
TGI (UACC-257 melanoma): > 100 µM
TGI (CAKI-1 renal): > 100 µM
TGI (SK-MEL-28 melanoma): > 100 µM
TGI (A549 NSCLC): > 100 µM
TGI (SW-620 colon): > 100 µM
TGI (RXF-631 renal): > 100 µM
TGI (DLD-1 colon): > 100 µM
TGI (KM20L2 colon): > 100 µM
TGI (SK-MEL-5 melanoma): > 100 µM
TGI (XF 498 CNS): > 100 µM
TGI (SNB-78 CNS): > 100 µM
TGI (HCT-15 colon): > 100 µM
TGI (IGROV1 ovarian): > 100 µM
TGI (OVCAR-5 ovarian): > 100 µM
TGI (HT29 colon): > 100 µM
TGI (EKVX NSCLC): > 100 µM
TGI (RPMI-8226 leukemia): > 100 µM
TGI (ACHN renal): > 100 µM
TGI (NCI-H460 lung): > 100 µM
TGI (SF-539 CNS): > 100 µM
TGI (SK-MEL-2 melanoma): > 100 µM
TGI (M14 melanoma): > 100 µM
TGI (MALME-3M melanoma): > 100 µM
TGI (HCT-116 colon): > 100 µM
TGI (U251 CNS): > 100 µM
TGI (SF-268 CNS): > 100 µM
TGI (OVCAR-3 ovarian): > 100 µM
TGI (786-0 renal): > 100 µM
TGI (HOP-92 NSCLC): > 100 µM
TGI (SR leukemia): > 100 µM

CCOc1cc2ccc3c4cc(OC)c(OC)cc4cnc3c2cc1OCC
TGI (NCI-H522 lung): > 100 µM
TGI (SNB-75 CNS): > 100 µM
TGI (SNB-19 CNS): > 100 µM
TGI (OVCAR-4 ovarian): > 100 µM
TGI (LXFL 529 NSCLC): > 100 µM
TGI (DMS 114 small cell lung): > 100 µM
TGI (M19-MEL melanoma): > 100 µM
TGI (OVCAR-8 ovarian): > 100 µM
TGI (SF-295 CNS): > 100 µM
TGI (UO-31 renal): > 100 µM
TGI (COLO 205 colon): > 100 µM
TGI (SN12C renal): > 100 µM
TGI (HOP-62 NSCLC): > 100 µM
TGI (UACC-62 melanoma): > 100 µM
TGI (MOLT-4 leukemia): > 100 µM
TGI (TK-10 renal): > 100 µM
TGI (HCC-2998 colon): > 100 µM
TGI (NCI-H23 lung): > 100 µM
TGI (KM12 colon): > 100 µM
TGI (K-562 leukemia): > 100 µM
TGI (CCRF-CEM leukemia): > 100 µM
TGI (SK-OV-3 ovarian): > 100 µM
TGI (UACC-257 melanoma): > 100 µM
TGI (CAKI-1 renal): > 100 µM
TGI (SK-MEL-28 melanoma): > 100 µM
TGI (A549 NSCLC): > 100 µM
TGI (SW-620 colon): > 100 µM
TGI (DLD-1 colon): > 100 µM
TGI (KM20L2 colon): > 100 µM
TGI (A498 renal): > 100 µM
TGI (SK-MEL-5 melanoma): > 100 µM
TGI (XF 498 CNS): > 100 µM
TGI (SNB-78 CNS): > 100 µM
TGI (HCT-15 colon): > 100 µM
TGI (HOP-18 NSCLC): > 100 µM
TGI (IGROV1 ovarian): > 100 µM
TGI (OVCAR-5 ovarian): > 100 µM
TGI (HT29 colon): > 100 µM
TGI (EKVX NSCLC): > 100 µM
TGI (RPMI-8226 leukemia): > 100 µM
TGI (ACHN renal): > 100 µM
TGI (NCI-H460 lung): > 100 µM
TGI (SF-539 CNS): > 100 µM
TGI (SK-MEL-2 melanoma): > 100 µM
TGI (M14 melanoma): > 100 µM
TGI (MALME-3M melanoma): > 100 µM
TGI (HCT-116 colon): > 100 µM
TGI (U251 CNS): > 100 µM
TGI (SF-268 CNS): > 100 µM
TGI (OVCAR-3 ovarian): > 100 µM
TGI (786-0 renal): > 100 µM

C=CCCOC(=O)CO[N+](=O)[O-]
TGI (LOX IMVI melanoma): > 100 µM
TGI (RXF 393 renal): > 100 µM
TGI (NCI-H226 lung): > 100 µM
TGI (NCI-H522 lung): > 100 µM
TGI (SNB-75 CNS): > 100 µM
TGI (SNB-19 CNS): > 100 µM
TGI (OVCAR-4 ovarian): > 100 µM
TGI (LXFL 529 NSCLC): > 100 µM
TGI (DMS 114 small cell lung): > 100 µM
TGI (M19-MEL melanoma): > 100 µM
TGI (OVCAR-8 ovarian): > 100 µM
TGI (SF-295 CNS): > 100 µM
TGI (UO-31 renal): > 100 µM
TGI (COLO 205 colon): > 100 µM
TGI (SN12C renal): > 100 µM
TGI (HOP-62 NSCLC): > 100 µM
TGI (MOLT-4 leukemia): > 100 µM
TGI (TK-10 renal): > 100 µM
TGI (DMS 273 small cell lung): > 100 µM
TGI (HCC-2998 colon): > 100 µM
TGI (NCI-H23 lung): > 100 µM
TGI (HL-60(TB) leukemia): 70.1 µM
TGI (KM12 colon): > 100 µM
TGI (K-562 leukemia): > 100 µM
TGI (CCRF-CEM leukemia): > 100 µM
TGI (SK-OV-3 ovarian): > 100 µM
TGI (UACC-257 melanoma): > 100 µM
TGI (CAKI-1 renal): > 100 µM
TGI (SK-MEL-28 melanoma): > 100 µM
TGI (A549 NSCLC): > 100 µM
TGI (SW-620 colon): > 100 µM
TGI (DLD-1 colon): > 100 µM
TGI (KM20L2 colon): > 100 µM
TGI (XF 498 CNS): > 100 µM
TGI (HCT-15 colon): > 100 µM
TGI (IGROV1 ovarian): > 100 µM
TGI (OVCAR-5 ovarian): > 100 µM
TGI (HT29 colon): > 100 µM
TGI (EKVX NSCLC): > 100 µM
TGI (RPMI-8226 leukemia): > 100 µM
TGI (ACHN renal): > 100 µM
TGI (NCI-H460 lung): > 100 µM
TGI (SF-539 CNS): > 100 µM
TGI (SK-MEL-2 melanoma): > 100 µM
TGI (M14 melanoma): > 100 µM
TGI (MALME-3M melanoma): > 100 µM
TGI (HCT-116 colon): > 100 µM
TGI (U251 CNS): > 100 µM
TGI (SF-268 CNS): > 100 µM
TGI (OVCAR-3 ovarian): > 100 µM
TGI (786-0 renal): > 100 µM
TGI (SR leukemia): > 100 µM
